Measured values reported in patent publication US20240327393A1 (SIRONAX LTD., priority 2021, published 2024).

system: HT-1080 (ATCC, CCL-121) cells; test: HT-1080 cell viability assay with ferroptosis inducer RSL3 (Cell Titer-Glo); assay type: cell-based; conditions: HT-1080 cells treated with RSL3; 3-fold, 10-point dilution, 1.1 μM highest concentration; Table 2; read-out: EC50 (nM), ferroptosis inhibitory activity
In short: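 HT-1080 cells (6000 per well) were cultured overnight at 37 °C, then co-treated with RSL3 and compound in a 3-fold, 10-point series topping at 1.1 μM. Viability was read by CellTiter-Glo luminescence and normalized to untreated controls. EC50 came from a sigmoidal non-linear regression fit.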

EC50	SMILES
0.1 to 100 nM	Cc1cc(Nc2ccc3c(c2)OCC(=O)N3)ccc1N1CC(C)OC(C)C1 (centres unmarked) [Compound 145, 7-((4-(2,6-dimethylmorpholino)-3-methylphenyl)amino)-2H-benzo[b][1,4]oxazin-3(4H)-one]

same assay, conditions: Homo sapiens; HT-1080 cells treated with RSL3; 3-fold, 10-point dilution, 1.1 μM highest concentration; Table 2; read-out: EC50 (nM), ferroptosis inhibitory activity

EC50	SMILES
100 to 1000 nM	Cn1cnc2cc(Nc3ccc4c(c3)n(C)c(=O)n4C)ccc21 [Compound 331, 1,3-dimethyl-5-((1-methyl-1H-benzo[d]imidazol-5-yl)amino)-1,3-dihydro-2H-benzo[d]imidazol-2-one]
0.1 to 100 nM	CC1CCN(c2ccc(Nc3ccc4c(c3)n(C)c(=O)n4C)cc2F)CC1 [Compound 283, 5-((3-fluoro-4-(4-methylpiperidin-1-yl)phenyl)amino)-1,3-dimethyl-1,3-dihydro-2H-benzo[d]imidazol-2-one]
0.1 to 100 nM	CC1CCN(c2ccc(Nc3ccc4nnn(C)c4c3)cc2)CC1 [Compound 321, 1-methyl-N-(4-(4-methylpiperidin-1-yl)phenyl)-1H-benzo[d][1,2,3]triazol-6-amine]
0.1 to 100 nM	Cn1cc(C(N)=O)c2cc(Nc3ccc(N4CCC(C(F)(F)F)CC4)cc3)ccc21 [Compound 383, 1-methyl-5-((4-(4-(trifluoromethyl)piperidin-1-yl)phenyl)amino)-1H-indole-3-carboxamide]
0.1 to 100 nM	CCC1Oc2cc(Nc3ccc(N4CC(C)OC(C)C4)cc3)ccc2NC1=O (centres unmarked) [Compound 154, 7-((4-(2,6-dimethylmorpholino)phenyl)amino)-2-ethyl-2H-benzo[b][1,4]oxazin-3(4H)-one]
0.1 to 100 nM	C/N=C1\c2ccc(Nc3ccc(N4CCC(C(F)(F)F)CC4)cc3)cc2CN1C [Compound 313, 2-methyl-1-(methylimino)-N-(4-(4-(trifluoromethyl)piperidin-1-yl)phenyl)isoindolin-5-amine]
0.1 to 100 nM	CN1CCN(CC(=O)N2CCc3cc(Nc4ccccc4)ccc3C2)CC1 [Compound 107, 2-(4-methylpiperazin-1-yl)-1-(6-(phenylamino)-3,4-dihydroisoquinolin-2(1H)-yl)ethan-1-one]
0.1 to 100 nM	FC(F)(F)C1CCN(c2ccc(Nc3ccc4ocnc4c3)cc2)CC1 [Compound 359, N-(4-(4-(trifluoromethyl)piperidin-1-yl)phenyl)benzo[d]oxazol-5-amine]
0.1 to 100 nM	CC1CCC(C)N1c1ccc(Nc2ccc3c(c2)n(C)c(=O)n3C)cc1 (centres unmarked) [Compound 254, 5-((4-(2,5-dimethylpyrrolidin-1-yl)phenyl)amino)-1,3-dimethyl-1,3-dihydro-2H-benzo[d]imidazol-2-one]
0.1 to 100 nM	CCNc1nc2cc(Nc3ccc(N4CCC(C(F)(F)F)CC4)cc3)ccc2n1C [Compound 401, N2-ethyl-1-methyl-N5-(4-(4-(trifluoromethyl)piperidin-1-yl)phenyl)-1H-benzo[d]imidazole-2,5-diamine]
0.1 to 100 nM	CN1Cc2cc(Nc3ccc(N4CCC(C)(C)CC4)cc3)ccc2C1=O [Compound 211, 5-((4-(4,4-dimethylpiperidin-1 yl)phenyl)amino)-2-methylisoindolin-1-one]
0.1 to 100 nM	COCCN1C(=O)COc2cc(Nc3ccc(N4CCC(C(F)(F)F)CC4)cc3)ccc21 [Compound 11, 4-(2-methoxyethyl)-7-((4-(4-(trifluoromethyl)piperidin-1-yl)phenyl)amino)-2H-benzo[b][1,4]oxazin-3(4H)-one]
0.1 to 100 nM	Cn1c(=O)n(C)c2cc(Nc3ccc(C(F)(F)F)cc3)ccc21 [Compound 404, 1,3-dimethyl-5-((4-(trifluoromethyl)phenyl)amino)-1,3-dihydro-2H-benzo [d]imidazol-2-one]
0.1 to 100 nM	CC1(C)c2ccc(Nc3ccc(N4CCC(C(F)(F)F)CC4)cc3)cc2CN1C(=O)C1CC1 [Compound 189, cyclopropyl(1,1-dimethyl-5-((4-(4-(trifluoromethyl)piperidin-1-yl)phenyl)amino)isoindolin-2-yl)methanone]
0.1 to 100 nM	CN1C(=O)COc2cc(Nc3ccc(OC4CCCCC4)cc3)ccc21 [Compound 7, 7-((4-(cyclohexyloxy)phenyl)amino)-4-methyl-2H-benzo[b][1,4]oxazin-3(4H)-one]
0.1 to 100 nM	Cc1nc(N2CC(C)OC(C)C2)ccc1Nc1ccc2c(c1)OCC(=O)N2C (centres unmarked) [Compound 69, 7-((6-(2,6-dimethylmorpholino)-2-methylpyridin-3-yl)amino)-4-methyl-2H-benzo[b][1,4]oxazin-3(4H)-one]
0.1 to 100 nM	CC1CN(c2ccc(Nc3cc(F)c4c(c3)OCC(=O)N4C)cc2)CC(C)O1 (centres unmarked) [Compound 87, 7-((4-(2,6-dimethylmorpholino)phenyl)amino)-5-fluoro-4-methyl-2H-benzo[b][1,4]oxazin-3(4H)-one]
0.1 to 100 nM	Cc1nc(=O)n(C)c2ccc(Nc3ccc(N4CCC(C(F)(F)F)CC4)cc3)cc12 [Compound 113, 1,4-dimethyl-6-((4-(4-(trifluoromethyl)piperidin-1-yl)phenyl)amino) quinazolin-2(1H)-one]
0.1 to 100 nM	CN(C)c1cc(Nc2ccc3c(=O)n(C)[nH]c3c2)ccc1N1CCCCC1 [Compound 304, 6-((3-(dimethylamino)-4-(piperidin-1-yl)phenyl)amino)-2-methyl-1,2-dihydro-3H-indazol-3-one]
0.1 to 100 nM	CC1CC(c2ccc(Nc3ccc4c(c3)OCC(=O)N4C)cc2)CC(C)O1 (centres unmarked) [Compound 64, 7-((4-(2,6-dimethyltetrahydro-2H-pyran-4-yl)phenyl)amino)-4-methyl-2H-benzo[b][1,4]oxazin-3(4H)-one]
0.1 to 100 nM	CC1(C)CCC(c2ccc(Nc3ccc4nc(N)sc4c3)cc2)CC1 [Compound 409, N^6-(4-(4,4-dimethylcyclohexyl)phenyl)benzo[d]thiazole-2,6-diamine]
0.1 to 100 nM	CCN1Cc2ccc(Nc3ccc(N4CCC(C)CC4)cc3)cc2C1 [Compound 176, 2-ethyl-N-(4-(4-methylpiperidin-1-yl)phenyl)isoindolin-5-amine]
0.1 to 100 nM	COC1(C(F)(F)F)CCN(c2ccc(Nc3ccc4c(c3)n(C)c(=O)n4C)cc2)CC1 [Compound 384, 5-((4-(4-methoxy-4-(trifluoromethyl)piperidin-1-yl)phenyl)amino)-1,3-dimethyl-1,3-dihydro-2H-benzo[d]imidazol-2-one]
0.1 to 100 nM	Cc1c(Nc2ccc3c(c2)n(C)c(=O)n3C)ccc(N2CCC(C)CC2)c1F [Compound 275, 5-((3-fluoro-2-methyl-4-(4-methylpiperidin-1-yl)phenyl)amino)-1,3-dimethyl-1,3-dihydro-2H-benzo[d]imidazol-2-one]
0.1 to 100 nM	CC1CCC(N2Cc3cc(Nc4ccc(N5CCC(C(F)(F)F)CC5)cc4)ccc3C2=O)CC1 (centres unmarked) [Compound 221, 2-(4-methylcyclohexyl)-5-((4-(4-(trifluoromethyl)piperidin-1-yl)phenyl)amino)isoindolin-1-one]

same assay, conditions: Homo sapiens; HT-1080 cells treated with RSL3; 3-fold, 10-point dilution, 1.1 μM highest concentration; Table 3; read-out: EC50 (nM), ferroptosis inhibitory activity

EC50	SMILES
0.1 to 100 nM	CC1CC(c2ccc(Nc3ccc4c(c3)OCC(=O)N4)cc2)CCO1 (centres unmarked) [Compound 479, 7-((4-(2-methyltetrahydro-2H-pyran-4-yl)phenyl)amino)-2H-benzo[b][1,4]oxazin-3(4H)-one]
0.1 to 100 nM	O=C1CCOc2cc(Nc3ccc(N4CCC(O)(C(F)(F)F)CC4)cc3)ccc2N1 [Compound 556, 8-((4-(4-hydroxy-4-(trifluoromethyl)piperidin-1-yl)phenyl)amino)-2,3-dihydrobenzo[b][1,4]oxazepin-4(5H)-one]
0.1 to 100 nM	O=C1COc2cc(Nc3cnc(N4CCC(C(F)(F)F)CC4)c(F)c3)ccc2N1 [Compound 459, 7-((5-fluoro-6-(4-(trifluoromethyl)piperidin-1-yl)pyridin-3-yl)amino)-2H-benzo[b][1,4]oxazin-3(4H)-one]
100 to 1000 nM	Cc1cc(N2CCC(C(F)(F)F)CC2)ccc1Nc1ccn2ccnc2c1 [Compound 606, N-(2-methyl-4-(4-(trifluoromethyl)piperidin-1-yl)phenyl) imidazo[1,2-a]pyridin-7-amine]
0.1 to 100 nM	Cc1c(Nc2ccc3c(c2)OCC(=O)N3)ccc(N2CCC(C(F)(F)F)CC2)c1C [Compound 487, 7-((2,3-dimethyl-4-(4-(trifluoromethyl)piperidin-1-yl)phenyl)amino)-2H-benzo[b][1,4]oxazin-3(4H)-one]
0.1 to 100 nM	Cc1cc(N2CCC(C(F)(F)F)CC2)ccc1Nc1ccc2[nH]cc(C(N)=O)c2c1 [Compound 571, 5-((2-methyl-4-(4-(trifluoromethyl)piperidin-1-yl)phenyl)amino)-1H-indole-3-carboxamide]
0.1 to 100 nM	Cc1cc(N2CC(C(F)(F)F)C2)ccc1Nc1ccc2c(c1)OCCC(=O)N2 [Compound 590]
0.1 to 100 nM	Cc1cc(N2CCC(C(F)(F)F)CC2)ccc1Nc1cc2c(cc1C)N(C)C(=O)CO2 [Compound 477, 4,6-dimethyl-7-((2-methyl-4-(4-(trifluoromethyl)piperidin-1-yl)phenyl)amino)-2H-benzo[b][1,4]oxazin-3(4H)-one]
0.1 to 100 nM	O=C1COc2cc(Nc3ccc(N4CCC(C(F)(F)F)CC4)cc3)cnc2N1 [Compound 450, 7-((4-(4-(trifluoromethyl)piperidin-1-yl)phenyl)amino)-2H-pyrido[3,2-b][1,4]oxazin-3(4H)-one]
0.1 to 100 nM	COC1(C)CN(c2ccc(Nc3ccc4c(c3)OCC(=O)N4)c(C)c2)C1 [Compound 639, 7-((4-(3-methoxy-3-methylazetidin-1-yl)-2-methylphenyl)amino)-2H-benzo[b][1,4] oxazin-3(4H)-one]
0.1 to 100 nM	Cc1cc(N2CCC(C(F)(F)F)CC2)ccc1Nc1ccn2nccc2c1 [Compound 612, N-(2-methyl-4-(4-(trifluoromethyl)piperidin-1-yl)phenyl) pyrazolo[1,5-a]pyridin-5-amine]
0.1 to 100 nM	Cc1cc(N2CCC(C(F)(F)F)CC2)ccc1Nc1ccc2c(c1)OCCNC2=O [Compound 531, 8-((2-methyl-4-(4-(trifluoromethyl)piperidin-1-yl)phenyl)amino)-3,4-dihydrobenzo[f][1,4]oxazepin-5(2H)-one]
